Source: patent publication US20220281848A1, “PYRAZOLE-SUBSTITUTED PYRROLIDINONES AS HERBICIDES” (FMC Corporation, priority 2019, published 2022)

Tested on: plants
Experiment: Test D pre-emergence, other plants of Tables D1 and D3
Type: in vivo
Settings: preemergent, 20 DAA
Experimental: A formulation containing 50 g/L of the test chemical was prepared by dissolving the active ingredient in a mixture of organic solvents and emulsifier, details of which are provided in the table. This formulation was then mixed with a small, variable amount of acetone to aid dissolution, before addition of a 0.2% v/v aqueous solution of an adjuvant, as the aqueous diluent, to form an aqueous spray solution which contains a predetermined concentration of the active ingredient.
This aqueous spray solution was then sprayed onto plants including maize and wheat that had been seed treated with a herbicide safener, after one day's cultivation (for pre-emergence) or after about 12 days' cultivation (for post-emergence). The plants were grown from seeds sown in standard soil, placed in a glasshouse under controlled conditions (at 24/18° C. or 20/16° C., day/night; 16 h light; 65% humidity). After spray application the plants were then grown in a glasshouse under the same conditions and watered twice daily. After 15 d for post-emergence and 20 DAA for pre-emergence the test was evaluated (100=total damage to plant; 0=no damage to plant).

CN1CC(c2cc(C(F)(F)F)n(C)n2)C(C(=O)Nc2ccccc2F)C1=O (racemic) [Compound 9]
damage to plant (100=total damage to plant; 0=no damage to plant), ABUTH (rate 15): 0 | damage to plant (100=total damage to plant; 0=no damage to plant), ABUTH (rate 30): 0 | damage to plant (100=total damage to plant; 0=no damage to plant), ABUTH (rate 60): 0 | damage to plant (100=total damage to plant; 0=no damage to plant), ABUTH (rate 130): 0 | damage to plant (100=total damage to plant; 0=no damage to plant), ABUTH (rate 250): 10 | damage to plant (100=total damage to plant; 0=no damage to plant), ABUTH (rate 500): 10 | damage to plant (100=total damage to plant; 0=no damage to plant), AMARE (rate 15): 0 | damage to plant (100=total damage to plant; 0=no damage to plant), AMARE (rate 30): 0 | damage to plant (100=total damage to plant; 0=no damage to plant), AMARE (rate 500): 0 | damage to plant (100=total damage to plant; 0=no damage to plant), BIDPI (rate 15): 0 | damage to plant (100=total damage to plant; 0=no damage to plant), BIDPI (rate 30): 0 | damage to plant (100=total damage to plant; 0=no damage to plant), BIDPI (rate 60): 0 | damage to plant (100=total damage to plant; 0=no damage to plant), BIDPI (rate 130): 0 | damage to plant (100=total damage to plant; 0=no damage to plant), BIDPI (rate 250): 0 | damage to plant (100=total damage to plant; 0=no damage to plant), BIDPI (rate 500): 0 | damage to plant (100=total damage to plant; 0=no damage to plant), BRAPL (rate 15): 0 | damage to plant (100=total damage to plant; 0=no damage to plant), BRAPL (rate 30): 10 | damage to plant (100=total damage to plant; 0=no damage to plant), BRAPL (rate 60): 30 | damage to plant (100=total damage to plant; 0=no damage to plant), BRAPL (rate 130): 90 | damage to plant (100=total damage to plant; 0=no damage to plant), BRAPL (rate 250): 100 | damage to plant (100=total damage to plant; 0=no damage to plant), BRAPL (rate 500): 100 | damage to plant (100=total damage to plant; 0=no damage to plant), CYPES (rate 15): 0 | damage to plant (100=total damage to plant; 0=no damage to plant), CYPES (rate 30): 0 | damage to plant (100=total damage to plant; 0=no damage to plant), CYPES (rate 60): 0 | damage to plant (100=total damage to plant; 0=no damage to plant), CYPES (rate 130): 0 | damage to plant (100=total damage to plant; 0=no damage to plant), CYPES (rate 250): 0 | damage to plant (100=total damage to plant; 0=no damage to plant), CYPES (rate 500): 0 | damage to plant (100=total damage to plant; 0=no damage to plant), DIGSA (rate 15): 0 | damage to plant (100=total damage to plant; 0=no damage to plant), DIGSA (rate 30): 80 | damage to plant (100=total damage to plant; 0=no damage to plant), DIGSA (rate 60): 80 | damage to plant (100=total damage to plant; 0=no damage to plant), DIGSA (rate 130): 100 | damage to plant (100=total damage to plant; 0=no damage to plant), DIGSA (rate 250): 90 | damage to plant (100=total damage to plant; 0=no damage to plant), DIGSA (rate 500): 100 | damage to plant (100=total damage to plant; 0=no damage to plant), ECHCG (rate 15): 0 | damage to plant (100=total damage to plant; 0=no damage to plant), ECHCG (rate 30): 20 | damage to plant (100=total damage to plant; 0=no damage to plant), ECHCG (rate 60): 80 | damage to plant (100=total damage to plant; 0=no damage to plant), ECHCG (rate 130): 90 | damage to plant (100=total damage to plant; 0=no damage to plant), ECHCG (rate 250): 90 | damage to plant (100=total damage to plant; 0=no damage to plant), ECHCG (rate 500): 90 | damage to plant (100=total damage to plant; 0=no damage to plant), ELEIN (rate 15): 0 | damage to plant (100=total damage to plant; 0=no damage to plant), ELEIN (rate 30): 0 | damage to plant (100=total damage to plant; 0=no damage to plant), ELEIN (rate 60): 0 | damage to plant (100=total damage to plant; 0=no damage to plant), ELEIN (rate 130): 0 | damage to plant (100=total damage to plant; 0=no damage to plant), ELEIN (rate 250): 0 | damage to plant (100=total damage to plant; 0=no damage to plant), ELEIN (rate 500): 0 | damage to plant (100=total damage to plant; 0=no damage to plant), EPHHL (rate 15): 0 | damage to plant (100=total damage to plant; 0=no damage to plant), EPHHL (rate 30): 0 | damage to plant (100=total damage to plant; 0=no damage to plant), EPHHL (rate 60): 0 | damage to plant (100=total damage to plant; 0=no damage to plant), EPHHL (rate 130): 0 | damage to plant (100=total damage to plant; 0=no damage to plant), EPHHL (rate 500): 10 | damage to plant (100=total damage to plant; 0=no damage to plant), GLXMA (rate 15): 0 | damage to plant (100=total damage to plant; 0=no damage to plant), GLXMA (rate 30): 0 | damage to plant (100=total damage to plant; 0=no damage to plant), GLXMA (rate 60): 0 | damage to plant (100=total damage to plant; 0=no damage to plant), GLXMA (rate 130): 0 | damage to plant (100=total damage to plant; 0=no damage to plant), GLXMA (rate 250): 0 | damage to plant (100=total damage to plant; 0=no damage to plant), GLXMA (rate 500): 0 | damage to plant (100=total damage to plant; 0=no damage to plant), IPOHE (rate 15): 0 | damage to plant (100=total damage to plant; 0=no damage to plant), IPOHE (rate 30): 0 | damage to plant (100=total damage to plant; 0=no damage to plant), IPOHE (rate 60): 0 | damage to plant (100=total damage to plant; 0=no damage to plant), IPOHE (rate 130): 0 | damage to plant (100=total damage to plant; 0=no damage to plant), IPOHE (rate 250): 0 | damage to plant (100=total damage to plant; 0=no damage to plant), IPOHE (rate 500): 0 | damage to plant (100=total damage to plant; 0=no damage to plant), ORYSA (rate 15): 0 | damage to plant (100=total damage to plant; 0=no damage to plant), ORYSA (rate 30): 0 | damage to plant (100=total damage to plant; 0=no damage to plant), ORYSA (rate 60): 0 | damage to plant (100=total damage to plant; 0=no damage to plant), ORYSA (rate 130): 0 | damage to plant (100=total damage to plant; 0=no damage to plant), ORYSA (rate 250): 0 | damage to plant (100=total damage to plant; 0=no damage to plant), ORYSA (rate 500): 0 | damage to plant (100=total damage to plant; 0=no damage to plant), PANMI (rate 15): 0 | damage to plant (100=total damage to plant; 0=no damage to plant), PANMI (rate 30): 0 | damage to plant (100=total damage to plant; 0=no damage to plant), PANMI (rate 60): 0 | damage to plant (100=total damage to plant; 0=no damage to plant), PANMI (rate 130): 0 | damage to plant (100=total damage to plant; 0=no damage to plant), PANMI (rate 250): 0 | damage to plant (100=total damage to plant; 0=no damage to plant), PANMI (rate 500): 0 | damage to plant (100=total damage to plant; 0=no damage to plant), SETFA (rate 15): 0 | damage to plant (100=total damage to plant; 0=no damage to plant), SETFA (rate 30): 0 | damage to plant (100=total damage to plant; 0=no damage to plant), SETFA (rate 60): 0 | damage to plant (100=total damage to plant; 0=no damage to plant), SETFA (rate 130): 50 | damage to plant (100=total damage to plant; 0=no damage to plant), SETFA (rate 250): 70 | damage to plant (100=total damage to plant; 0=no damage to plant), SETFA (rate 500): 90 | damage to plant (100=total damage to plant; 0=no damage to plant), SIDSP (rate 15): 0 | damage to plant (100=total damage to plant; 0=no damage to plant), SIDSP (rate 30): 0 | damage to plant (100=total damage to plant; 0=no damage to plant), SIDSP (rate 60): 0 | damage to plant (100=total damage to plant; 0=no damage to plant), SIDSP (rate 130): 0 | damage to plant (100=total damage to plant; 0=no damage to plant), SIDSP (rate 250): 0 | damage to plant (100=total damage to plant; 0=no damage to plant), SIDSP (rate 500): 0 | damage to plant (100=total damage to plant; 0=no damage to plant), SORVU (rate 15): 0 | damage to plant (100=total damage to plant; 0=no damage to plant), SORVU (rate 30): 0 | damage to plant (100=total damage to plant; 0=no damage to plant), SORVU (rate 60): 0 | damage to plant (100=total damage to plant; 0=no damage to plant), SORVU (rate 130): 0 | damage to plant (100=total damage to plant; 0=no damage to plant), SORVU (rate 250): 0
